The results in this text go back to patent US8716285B2, “N-hydroxy-benzamids for the treatment of cancer” (Hoffmann-La Roche Inc., priority 2010, dated 2014).

The structures appear in SMILES notation.

One assay deals with RPMI-8226 cells. Description: Growth inhibitory synergy with Velcade, WST/CCK-8 assay. Type of assay: cell-based. The note with it: 72 h. Here is the method: Cells were seeded in 96-well culture plates (200 μl/well at different seeding concentrations depending on cell type) and incubated overnight at 37° C. in 5% CO2. After adding compound dilutions to the cells (DMSO concentration kept below 0.5%), the cells were incubated at 37° C. in 5% CO2 for 72 hours. The effects on proliferation were determined by addition of CCK-8 reagent (Dojindo) according to the manufacturer's instruction, followed by incubation for 2 hours at 37° C. in 5% CO2, and finally recording the absorbance at 450 nm using an ELISA plate reader.
Novel compounds were tested for their synergistic effect with Velcade in multiple myeloma cells in vitro. Briefly, the multiple myeloma cells (RPMI-8226, OPM-2, or NCI-H929) were seeded into 96 well plate at 18000-20000 cells per well. The GI50s of these compounds against myeloma cells were measured by WST assay. […] The tested compound and Velcade used the same dilution factor in the combination treatment. […] After 72 h treatment, cell viability was measured at 450 nm by SpectraMAX190 after 2 h incubation with CCK8 reagent at 37° C. Synergy between the tested compounds and velcade was analyzed by software Calcusyn. […]
Notes: Chou and Talalay in 1983 proposed the designation of CI (combination index)=1 as the additive effect. […] It can be calculated by the equation above. […]
In general terms: Tetrazolium dyes change colour on reduction, which living cells bring about.

Assay [1] concerns p21 promoter-luciferase construct. Description: p21 reporter gene induction in HeLa cells transfected with p21 promoter-luciferase construct. Type of assay: cell-based. The note with it: for p21 RP3: relative gene level of p21 induced compared to MS275 at 3 μM; for p21 RP10: relative level of p21 induced compared to MS275 at 10 μM; for p21 RP30: relative level of p21 induced compared to MS275 at 30 μM.

The target of the next assay is HDAC6 (Homo sapiens (Human), UniProt Q9UBN7). Description: Tubulin acetylation cytoblot assay (A549 cells). Type of assay: cell-based. The note with it: 17-18 h, concentration for 50% induction of acetylated tubulin, read-out: Tub-ac EC50.
The target of the next assay is recombinant human HDAC8 (Homo sapiens (Human), UniProt Q9BY41). Description: HDAC8 inhibition: recombinant HDAC8 fluorometric assay. Type of assay: biochemical. The note with it: recombinant human HDAC8, substrate Ac-Arg-His-Lys-Lys(ε-acetyl)-AMC.
recombinant human HDAC8, sequence (Q9BY41 whole entry): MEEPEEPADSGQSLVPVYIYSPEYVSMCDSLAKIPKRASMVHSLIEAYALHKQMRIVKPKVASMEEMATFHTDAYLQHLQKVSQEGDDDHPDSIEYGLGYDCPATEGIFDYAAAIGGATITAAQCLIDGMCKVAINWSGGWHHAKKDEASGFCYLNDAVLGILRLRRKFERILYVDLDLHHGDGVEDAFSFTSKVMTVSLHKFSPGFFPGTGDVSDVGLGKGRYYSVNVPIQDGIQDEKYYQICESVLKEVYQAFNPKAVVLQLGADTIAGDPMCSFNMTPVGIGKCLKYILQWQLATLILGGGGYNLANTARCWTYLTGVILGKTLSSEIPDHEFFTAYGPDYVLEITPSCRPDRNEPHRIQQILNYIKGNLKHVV

HDAC6, sequence (Q9UBN7 whole entry): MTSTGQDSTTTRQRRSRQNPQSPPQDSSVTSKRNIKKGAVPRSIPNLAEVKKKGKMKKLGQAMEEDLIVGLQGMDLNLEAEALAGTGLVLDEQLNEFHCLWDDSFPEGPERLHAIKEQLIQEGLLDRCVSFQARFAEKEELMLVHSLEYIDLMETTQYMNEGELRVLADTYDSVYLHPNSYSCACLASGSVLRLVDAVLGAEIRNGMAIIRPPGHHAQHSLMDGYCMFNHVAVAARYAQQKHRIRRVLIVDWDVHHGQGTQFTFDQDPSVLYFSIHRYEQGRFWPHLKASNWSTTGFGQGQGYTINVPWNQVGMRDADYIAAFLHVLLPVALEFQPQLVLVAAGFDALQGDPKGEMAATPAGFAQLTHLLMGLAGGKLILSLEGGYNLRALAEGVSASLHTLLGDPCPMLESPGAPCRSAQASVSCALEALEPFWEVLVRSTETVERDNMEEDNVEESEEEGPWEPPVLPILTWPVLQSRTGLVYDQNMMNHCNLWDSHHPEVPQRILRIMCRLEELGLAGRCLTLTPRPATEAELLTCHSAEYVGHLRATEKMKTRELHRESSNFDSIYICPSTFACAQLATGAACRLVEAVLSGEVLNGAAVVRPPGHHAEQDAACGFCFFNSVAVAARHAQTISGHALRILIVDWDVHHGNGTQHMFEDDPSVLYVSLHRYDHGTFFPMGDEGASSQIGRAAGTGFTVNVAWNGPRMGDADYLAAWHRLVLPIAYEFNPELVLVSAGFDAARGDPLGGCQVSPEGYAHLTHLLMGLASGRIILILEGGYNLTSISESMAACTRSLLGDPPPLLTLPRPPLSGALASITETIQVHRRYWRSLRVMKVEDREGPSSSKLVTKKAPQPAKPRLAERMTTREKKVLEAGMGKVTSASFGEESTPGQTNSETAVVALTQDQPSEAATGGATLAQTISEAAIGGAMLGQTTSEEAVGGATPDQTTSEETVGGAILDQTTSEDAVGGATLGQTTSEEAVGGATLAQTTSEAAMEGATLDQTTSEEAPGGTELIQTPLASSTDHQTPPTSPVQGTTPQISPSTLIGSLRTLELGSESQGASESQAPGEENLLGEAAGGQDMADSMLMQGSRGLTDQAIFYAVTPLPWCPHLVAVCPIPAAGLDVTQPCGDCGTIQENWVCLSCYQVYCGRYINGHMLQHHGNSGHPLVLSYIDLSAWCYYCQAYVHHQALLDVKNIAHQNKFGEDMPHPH

Consider `O=C(NO)c1ccc2c(c1)CC(Nc1nccc(-c3cccnc3)n1)CC2` (centres unmarked) [Example 24, 7-(4-Pyridin-3-yl-pyrimidin-2-ylamino)-5,6,7,8-tetrahydro-naphthalene-2-carboxylic acid hydroxyamide], for which the “synergy with Velcade in cell growth inhibition” value in the assay on RPMI-8226 cells is recorded as “synergized with Velcade”.

By EC50 is commonly meant the concentration at which the effect is half-maximal. What is called IC50 is the concentration needed to halve the response being measured. With `O=C(NO)c1ccc2c(c1)CC(NC(=O)c1cccc(Cl)c1)CN2` (centres unmarked) [Example 56, 3-(3-Chloro-benzoylamino)-1,2,3,4-tetrahydro-quinoline-6-carboxylic acid hydroxyamide], in assay [1], the “p21 RP3” value is recorded as 0.04, the “p21 RP10” value is 0.05 and the “p21 RP30” value came to 0.12. At HDAC6, the EC50 came to 3.43 µM. Moreover, the IC50 on recombinant human HDAC8 was 3.37 µM.

Regarding `O=C(NO)c1ccc2c(c1)CC(NC(=O)c1cccc(C(F)(F)F)c1)CN2` (centres unmarked) [Example 57, 3-(3-Trifluoromethyl-benzoylamino)-1,2,3,4-tetrahydro-quinoline-6-carboxylic acid hydroxyamide], in assay [1], the “p21 RP3” value amounted to 0.07, the “p21 RP10” value is reported as 0.01 and the “p21 RP30” value was 0.04. Further, the EC50 on HDAC6 turned out to be 7.13 µM. The IC50 on recombinant human HDAC8 is 2.67 µM.

For the compound `O=C(NO)c1ccc2c(c1)CC(NC(=O)c1ccc(Cl)c(Cl)c1)CN2` (centres unmarked) [Example 58, 3-(3,4-Dichloro-benzoylamino)-1,2,3,4-tetrahydro-quinoline-6-carboxylic acid hydroxyamide], in assay [1], the “p21 RP3” value came to 0.03, the “p21 RP10” value was −0.03 and the “p21 RP30” value came out at 0.01. The EC50 on HDAC6 worked out at 5.36 µM. The IC50 at recombinant human HDAC8 turned out to be 2.63 µM.

In the case of `O=C(NO)c1ccc2c(c1)CC(NC(=O)c1ccc(-c3ccccc3)cc1)CN2` (centres unmarked) [Example 59, 3-[(Biphenyl-4-carbonyl)-amino]-1,2,3,4-tetrahydro-quinoline-6-carboxylic acid hydroxyamide], in assay [1], the “p21 RP3” value was 0.20, the “p21 RP10” value was 0.08 and the “p21 RP30” value is on record as 0.15. At HDAC6, the concentration giving a half-maximal response (EC50) came to 7.99 µM. Further, on recombinant human HDAC8, the IC50 came to 2.85 µM.

Regarding `CN1CC(NS(=O)(=O)c2ccc(Cl)cc2)Cc2cc(C(=O)NO)ccc21` (centres unmarked) [Example 65, 3-(4-Chloro-benzenesulfonylamino)-1-methyl-1,2,3,4-tetrahydro-quinoline-6-carboxylic acid hydroxyamide], in assay [1], the “p21 RP3” value is reported as 0.41, the “p21 RP10” value stood at 0.26 and the “p21 RP30” value worked out at 0.46. In addition, the EC50 on HDAC6 came to 10.6 µM. Besides, on recombinant human HDAC8, the half-maximal inhibitory concentration (IC50) is 0.75 µM.
